# According to PubChem BioAssay AID651809 (Broad Institute, 2012):
# “And” between values parts separate entries of the source, which are not always exact repeats. Equal entries are not always repeated. The source made the active and inactive calls. How the calls were made is not given here.
# Tested on: not listed separately
# Test: Light production activators, luxS cqsA deficient V. cholerae strain, confirmatory dry powder (AID 651809)
# Conditions: V. cholerae BH1578 lux reporter, luminescence, 6 h; at 35 µM (top of the series)
row,Structure (SMILES),activation
1,CN1CCC(NC(=O)Cc2ccc(-c3ccccc3)cc2)CC1,3.34% (inactive)
2,O=C(NCc1ccc(-c2ccccc2)cc1)C1CCCC1,0.158% (inactive) and 0.134% (inactive)
3,CCc1ccc(C(=O)Nc2nnnn2CC)cc1,-0.042% (inactive)
4,COc1ccc(CC(=O)NC2CCCC2)cc1,2.06% (inactive)
5,CC(C)(C)OC(=O)N1CCC(NC(=O)Cc2ccc(-c3ccccc3)cc2)CC1,-0.022% (inactive)
6,O=C(NC1CCCC1)Oc1ccc(-c2ccccc2)cc1,-0.045% (inactive)
7,O=C(Cc1ccc(-c2ccncc2)cc1)NC1CCCC1,1.61% (inactive)
8,O=C(Cc1ccc(-c2ccccc2)cc1)NCc1ccccc1,0.004% (inactive)
9,O=C(Cc1ccc(-c2ccccc2)cc1)N1CCC(F)(F)CC1,-0.007% (inactive)
10,O=C(Cc1ccc2ccccc2c1)NC1CCCC1,1.41% (inactive)
11,Cc1cccc(CC(=O)NC2CCCC2)c1,0.44% (inactive)
12,CCn1nnnc1NC(=O)c1ccc(N2CCCC2)cc1,0.669% (inactive)
13,O=C(Cc1ccccc1I)NC1CCCC1,0.012% (inactive)
14,CS(=O)(=O)c1ccc(CC(=O)NC2CCCC2)cc1,-0.009% (inactive)
15,O=C(Cc1ccc(-c2ccccc2)cc1)N1CCOCC1,0.215% (inactive)
16,CCn1nnc(NCc2ccc(N3CCCC3)cc2)n1,-0.042% (inactive) and -0.061% (inactive)
17,CCn1nnnc1NCc1ccccc1,0.115% (inactive)
18,O=C(Cc1cccc(-c2ccccc2)c1)NC1CCCC1,18% (inactive)
19,N#Cc1cccc(CC(=O)NC2CCCC2)c1,-0.04% (inactive)
20,CN(Cc1ccc(N2CCCC2)cc1)c1nnn(C)n1,-0.005% (inactive)
21,COc1ccccc1CC(=O)NC1CCCC1,0.627% (inactive)
22,Cn1nnc(NCc2ccccc2)n1,-0.02% (inactive)
23,CNC(=O)Cc1ccc(-c2ccccc2)cc1,0.578% (inactive)
24,CC(C(=O)NC1CCCC1)c1ccc(-c2ccccc2)cc1 (stereo not given),-0.069% (inactive)
25,Cn1nnc(NCc2ccc(C(F)(F)F)cc2)n1,1.48% (inactive)
26,CCn1nnc(NCc2ccccc2)n1,0.35% (inactive)

row,Structure (SMILES),activation
1,CC(C)n1nnc(NCc2ccc(N3CCCC3)cc2)n1,-0.029% (inactive)
2,CCN(Cc1ccc(N2CCCC2)cc1)c1nnnn1CC,1.22% (inactive)
3,O=C(Cc1ccccc1)NC1CCCC1,-0.05% (inactive)
4,CN(C)C(=O)Cc1ccc(-c2ccccc2)cc1,0.185% (inactive)
5,CCn1nnc(NCc2ccc(C(C)C)cc2)n1,0.061% (inactive)
6,c1cc(N2CCCC2)ccc1CNc1nn[nH]n1,-0.038% (inactive)
7,O=C(Cc1cccc(Cl)c1)NC1CCCC1,0.144% (inactive)
8,O=C(Cc1ccc(-c2ccccc2)cc1)N1CCCC1,0.018% (inactive)
9,O=C(Cc1cccc(C(F)(F)F)c1)NC1CCCC1,0.024% (inactive)
10,c1ccc(-c2ccc(CCNC3CCCC3)cc2)cc1,-0.024% (inactive)
11,O=C(Cc1ccccc1F)NC1CCCC1,0.011% (inactive)
12,O=C(CCc1ccc(-c2ccccc2)cc1)NC1CCCC1,-0.057% (inactive)
13,O=C(Cc1ccc(-c2ccccc2)cc1)Nc1ccccc1,0.038% (inactive)
14,CN1CCN(C(=O)Cc2ccc(-c3ccccc3)cc2)CC1,-0.018% (inactive)
15,CC(C)n1nnnc1NCc1ccc(N2CCCC2)cc1,133% (inactive)
16,O=C(Cc1ccc(-c2ccccc2)cc1)NC1CCCCC1,10.4% (inactive)
17,CN(C(=O)Cc1ccc(-c2ccccc2)cc1)C1CCCC1,0.648% (inactive)
18,O=C(O)Cc1ccc(-c2ccccc2)cc1,0.008% (inactive)
19,O=C(Cc1ccc(-c2ccccc2)cc1)NCC1CCCC1,0.056% (inactive)
20,O=C(Cc1ccc(-c2cccnc2)cc1)NC1CCCC1,15.8% (inactive)
21,O=C(Cc1ccccc1-c1ccccc1)NC1CCCC1,-0.016% (inactive)
22,CN(Cc1ccc(N2CCCC2)cc1)c1nnnn1C,14.6% (inactive)
23,FC(F)(F)c1ccc(CNc2nn[nH]n2)cc1,-0.017% (inactive)
24,O=C(Cc1ccccc1OC(F)(F)F)NC1CCCC1,0.011% (inactive)
25,O=C(Cc1ccc(-c2ccccc2)cc1)NC1CCNCC1,0.085% (inactive)
26,O=C(Cc1ccc(C(F)(F)F)cc1)NC1CCCC1,0.008% (inactive)

row,Structure (SMILES),activation
1,Cn1nnnc1NCc1ccc(C(F)(F)F)cc1,0.204% (inactive)
2,CC(C)c1ccc(CNc2nn[nH]n2)cc1,0.032% (inactive)
3,CC(C)c1ccc(CNc2nnn(C)n2)cc1,0.033% (inactive)
4,CS(=O)(=O)c1cccc(CC(=O)NC2CCCC2)c1,0.049% (inactive)
5,O=C(Cc1cccc(OC(F)(F)F)c1)NC1CCCC1,1.1% (inactive)
6,Cn1nnnc1NCc1ccccc1,-0.011% (inactive)
7,N#Cc1ccc(CC(=O)NC2CCCC2)cc1,-0.056% (inactive)
8,O=C(Cc1ccccn1)NC1CCCC1,0.07% (inactive)
9,CCn1nnc(NCc2ccc(C(F)(F)F)cc2)n1,-0.033% (inactive)
10,O=C(Nc1ccc(-c2ccccc2)cc1)NC1CCCC1,0.069% (inactive)
11,O=C(Cc1ccc(Cl)cc1)NC1CCCC1,0.645% (inactive)
12,O=C(Cc1ccc(OC(F)(F)F)cc1)NC1CCCC1,1.25% (inactive)
13,O=C(Cc1cccnc1)NC1CCCC1,-0.043% (inactive)
14,Cn1nnc(NCc2ccc(N3CCCC3)cc2)n1,0.034% (inactive)
15,Cc1ccc(CC(=O)NC2CCCC2)cc1,0.967% (inactive)
16,O=C(Cc1ccc(F)cc1)NC1CCCC1,0.012% (inactive)
17,c1ccc(CNc2nn[nH]n2)cc1,0.04% (inactive)
18,CCn1nnnc1NCc1cccn1C,-0.015% (inactive)
19,O=C(Cc1ccccc1C(F)(F)F)NC1CCCC1,0.015% (inactive)
20,O=C(Cc1cccc(F)c1)NC1CCCC1,0.009% (inactive)
21,COc1cccc(CC(=O)NC2CCCC2)c1,-0.014% (inactive)
22,O=C(Cc1ccccc1Cl)NC1CCCC1,0.002% (inactive)
23,O=C(Cc1ccc(-c2ccccc2)cc1)N1CCCCC1,-0.022% (inactive)
24,O=C(Cc1ccc(-c2ccccc2)cc1)N1CCC1,1.77% (inactive)
25,O=C(Cc1ccncc1)NC1CCCC1,0.026% (inactive)
26,O=C(Cc1ccc(-c2ccccc2)cc1)N1CC(F)(F)C1,1.11% (inactive)

# Tested on: V. cholerae BH1578 lux reporter, luminescence, 6 h
# Test: as above
# Conditions: not given
row,Structure (SMILES),AC40
1,CCCn1nnnc1NCc1ccc(C(C)C)cc1,529 nM
2,O=C(Cc1ccc(-c2ccccc2)cc1)NC1CCOCC1,5660 nM
3,CCn1nnnc1NCc1ccc(C(C)C)cc1,187 nM
4,O=C(Cc1ccc(-c2ccccc2)cc1)NC1CCC1,499 nM
5,CCNC(=O)Cc1ccc(-c2ccccc2)cc1,> 35000 nM (inactive)
6,CCn1nnnc1NCc1ccc(N2CCCC2)cc1,149 nM and < 135 nM
7,CC(C)c1ccc(CNc2nnnn2C)cc1,4170 nM
8,O=C(Cc1ccc(-c2ccccc2)cc1)NC1CCCC1,890 nM and 645 nM
9,Cc1ccccc1CC(=O)NC1CCCC1,7560 nM
10,O=C(Nc1nnc(-c2ccc3c(c2)OCCO3)o1)C1CCCCC1,2290 nM
11,O=C(Cc1ccc(-c2ccccn2)cc1)NC1CCCC1,10500 nM
12,CCC(C)NC(=O)Cc1ccc(-c2ccccc2)cc1 (stereo not given),5160 nM
13,CCC(CC)NC(=O)Cc1ccc(-c2ccccc2)cc1,4420 nM
14,CC(C)NC(=O)Cc1ccc(-c2ccccc2)cc1,1900 nM
15,Cn1nnnc1NCc1ccc(N2CCCC2)cc1,1030 nM
16,Cc1ccc2cc3c(NC(=O)c4ccco4)nn(C)c3nc2c1,10400 nM
17,CCn1nnnc1NCc1ccc(C(F)(F)F)cc1,17800 nM
